The source of these data is patent US12581252B2, “Substituted pyrrolo[3,4-b]pyridines as PI3K-α inhibitors” (Relay Therapeutics, Inc., priority 2020, dated 2026).

Sequence of H1047R PIK3CA enzyme (P42336 whole entry H1047R): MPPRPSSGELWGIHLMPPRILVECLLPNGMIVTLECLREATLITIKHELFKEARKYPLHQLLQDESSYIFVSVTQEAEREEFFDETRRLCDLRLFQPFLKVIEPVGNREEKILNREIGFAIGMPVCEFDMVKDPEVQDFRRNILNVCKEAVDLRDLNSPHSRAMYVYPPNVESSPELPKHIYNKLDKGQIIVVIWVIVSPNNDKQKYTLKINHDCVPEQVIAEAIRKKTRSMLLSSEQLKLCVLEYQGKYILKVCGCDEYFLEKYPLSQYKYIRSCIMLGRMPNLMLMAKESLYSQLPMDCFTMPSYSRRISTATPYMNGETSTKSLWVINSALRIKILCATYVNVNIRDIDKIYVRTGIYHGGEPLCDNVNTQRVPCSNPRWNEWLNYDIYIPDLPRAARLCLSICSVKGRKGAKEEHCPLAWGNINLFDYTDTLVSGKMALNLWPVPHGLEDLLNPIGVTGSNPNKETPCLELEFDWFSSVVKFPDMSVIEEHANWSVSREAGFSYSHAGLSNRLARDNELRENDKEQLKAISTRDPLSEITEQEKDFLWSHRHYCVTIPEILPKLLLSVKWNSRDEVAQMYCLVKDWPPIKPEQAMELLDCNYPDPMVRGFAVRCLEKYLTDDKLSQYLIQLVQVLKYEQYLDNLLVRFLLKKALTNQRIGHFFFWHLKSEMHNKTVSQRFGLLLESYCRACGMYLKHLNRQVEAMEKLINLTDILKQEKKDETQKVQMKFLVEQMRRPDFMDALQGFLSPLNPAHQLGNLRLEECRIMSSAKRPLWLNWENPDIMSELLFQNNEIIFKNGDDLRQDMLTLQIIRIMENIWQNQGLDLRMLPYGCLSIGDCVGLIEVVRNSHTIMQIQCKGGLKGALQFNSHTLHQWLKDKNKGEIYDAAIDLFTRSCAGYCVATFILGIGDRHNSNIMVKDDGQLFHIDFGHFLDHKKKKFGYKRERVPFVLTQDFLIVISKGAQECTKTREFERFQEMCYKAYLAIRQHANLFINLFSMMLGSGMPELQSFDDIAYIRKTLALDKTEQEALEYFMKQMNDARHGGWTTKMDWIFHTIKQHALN
Sequence of H1047R PIK3CA enzyme (P27986 whole entry partner): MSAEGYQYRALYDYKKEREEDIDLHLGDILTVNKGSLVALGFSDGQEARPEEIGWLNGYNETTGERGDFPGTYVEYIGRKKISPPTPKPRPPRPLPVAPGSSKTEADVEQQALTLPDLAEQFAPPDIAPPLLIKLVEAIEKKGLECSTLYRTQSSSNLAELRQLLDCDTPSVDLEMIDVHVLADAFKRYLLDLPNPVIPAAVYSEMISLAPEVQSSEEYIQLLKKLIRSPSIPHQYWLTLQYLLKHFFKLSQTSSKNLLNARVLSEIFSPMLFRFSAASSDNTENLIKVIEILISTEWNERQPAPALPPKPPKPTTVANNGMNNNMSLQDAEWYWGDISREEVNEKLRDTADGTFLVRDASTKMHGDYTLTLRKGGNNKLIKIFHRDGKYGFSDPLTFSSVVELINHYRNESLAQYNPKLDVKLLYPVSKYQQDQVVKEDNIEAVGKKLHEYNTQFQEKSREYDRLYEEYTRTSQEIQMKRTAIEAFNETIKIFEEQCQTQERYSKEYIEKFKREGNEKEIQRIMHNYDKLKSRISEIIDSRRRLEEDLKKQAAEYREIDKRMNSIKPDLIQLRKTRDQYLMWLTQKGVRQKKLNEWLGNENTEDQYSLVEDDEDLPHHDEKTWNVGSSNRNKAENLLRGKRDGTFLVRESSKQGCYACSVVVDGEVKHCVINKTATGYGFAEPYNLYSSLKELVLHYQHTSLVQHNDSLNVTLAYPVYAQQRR

This assay has as its target H1047R PIK3CA enzyme (Homo sapiens, UniProt P42336, H1047R). Briefly: ADP-Glo Biochemical PIK3CA Kinase Assay.
What is called IC50 is the point on the concentration scale where inhibition reaches its midpoint. Read a high IC50 as weaker potency in that assay. `O=C1N[C@H](c2cc(F)ccc2Cl)c2c(NC(=O)c3nsc4ccccc34)cc(-c3ccc4ncnn4c3)cc21` (stereo in doubt) [Compound I-1830] showed an IC50 of 1 to 10 µM. With `O=C(Nc1ccccc1)Nc1cc(Br)cc2c1[C@H](c1cc(F)ccc1Cl)NC2=O` (stereo in doubt) [Compound I-1945], the IC50 fell in the range of 10 to 100 µM. In turn, `O=C(Nc1ccccc1)Nc1cc(Br)cc2c1[C@@H](c1cc(F)ccc1Cl)NC2=O` (stereo in doubt) [Compound I-1946] came in with an IC50 of 1 to 10 µM. `N#CCCc1cc(NC(=O)c2cc(F)cc(C(F)(F)F)c2)c2c(c1)C(=O)N[C@@H]2c1cc(F)ccc1Cl` (stereo in doubt) [Compound I-2170] gave an IC50 of 10 to 100 µM. With `O=C1N[C@@H](c2cc(F)ccc2Cl)c2c(NC(=O)N3C[C@H](O)c4ccc(F)cc43)cccc21` (stereo in doubt) [Compound I-2172] the figure was 0.5 to 1 µM; with `O=C1N[C@H](c2cc(F)ccc2Cl)c2c(NC(=O)N3C[C@@H](O)c4ccc(F)cc43)cccc21` (stereo in doubt) [Compound I-2173], 1 to 10 µM.

Compound `O=C1N[C@H](c2cc(F)ccc2Cl)c2c(NC(=O)N3C[C@H](O)c4ccc(F)cc43)cccc21` (stereo in doubt) [Compound I-2174] showed an IC50 of 10 to 100 µM. The figure for `Cc1ccccc1C1NC(=O)c2cccc(NC(=O)c3cc(F)cc(C(F)(F)F)c3)c21` (stereo not drawn) [Compound I-2] is 0.1 to 0.5 µM. Turning to `O=C1NCc2c(NC(=O)c3csc4ccccc34)cccc21` [Compound I-3], the IC50 lay in the range of 10 to 100 µM. The figure for `Cc1ccccc1[C@H]1NC(=O)c2cccc(NC(=O)c3csc4ccccc34)c21` [Compound I-4] is 0.5 to 1 µM; for `Cc1ccccc1C1NC(=O)c2nccc(NC(=O)c3csc4ccccc34)c21` (stereo not drawn) [Compound I-7] it is 0.1 to 0.5 µM.

`O=C1NC(c2ccccc2)c2c(NC(=O)c3csc4ccccc34)cccc21` (stereo not drawn) [Compound I-8] showed an IC50 of 0.1 to 0.5 µM. With `O=C1NC(c2ccccc2Cl)c2c(NC(=O)c3csc4ccccc34)ccnc21` (stereo not drawn) [Compound I-9] the figure was 0.1 to 0.5 µM; with `Cc1ccccc1C1NC(=O)Oc2cccc(Br)c21` (stereo not drawn) [Compound I-10], 10 to 100 µM. The figure for `Cc1ccccc1C1NC(=O)c2cccc(NC(=O)c3cccc4c3CCCO4)c21` (stereo not drawn) [Compound I-11] is 10 to 100 µM; for `Cc1ccccc1C1NC(=O)c2cccc(NC(=O)c3cccc(C(F)(F)F)c3F)c21` (stereo not drawn) [Compound I-12] it is 10 to 100 µM; for `COc1cccc(-c2cccc3c2C(c2ccccc2C)NC3=O)n1` (stereo not drawn) [Compound I-14] it is 10 to 100 µM. For `O=C1NC(c2cccc(F)c2F)c2c(NC(=O)c3csc4ccccc34)ccnc21` (stereo not drawn) [Compound I-15, N-(5-(2,3-Difluorophenyl)-7-oxo-6,7-dihydro-5H-pyrrolo[3,4-b]pyridin-4-yl)benzo[b]thiophene-3-carboxamide], the IC50 was 0.1 to 0.5 µM. In turn, `Cc1ccccc1C1NC(=O)c2cccc(NC(=O)C(F)(F)F)c21` (stereo not drawn) [Compound I-16] came in with an IC50 of 10 to 100 µM.

Consider `Cc1ccccc1C1NC(=O)c2cccc(NC(=O)c3nn(C)c4ccccc34)c21` (stereo not drawn) [Compound I-17], for which the IC50 lay in the range of 10 to 100 µM. Take `COc1ccccc1C1NC(=O)c2cccc(NC(=O)c3csc4ccccc34)c21` (stereo not drawn) [Compound I-18]: the concentration for half-maximal inhibition (IC50) fell in the range of 1 to 10 µM. Take `Cc1ccccc1C1NC(=O)c2cccc(NC(=O)c3coc4cc(F)ccc34)c21` (stereo not drawn) [Compound I-20]: the IC50 was 0.5 to 1 µM. The compound `Cc1ccccc1C1NC(=O)c2cccc(NC(=O)c3noc4ccc(F)cc34)c21` (stereo not drawn) [Compound I-21] had an IC50 of 1 to 10 µM. In the case of `O=C1N[C@H](c2cccc(F)c2F)c2c(NC(=O)c3csc4ccccc34)ccnc21` [Compound I-23], the IC50 was in the range of 1 to 10 µM.

As for `Cc1ccccc1C1NC(=O)c2cccc(NC(=O)c3n[nH]c4ccccc34)c21` (stereo not drawn) [Compound I-24], the IC50 was in the range of 10 to 100 µM. With `Cc1ccccc1C1NC(=O)c2cccc(Nc3cc4ccccc4nn3)c21` (stereo not drawn) [Compound I-27] the figure was 10 to 100 µM; with `Cc1ccccc1C1NC(=O)c2cccc(Nc3nc(C)c4ccccc4n3)c21` (stereo not drawn) [Compound I-28], 10 to 100 µM.
